Literature values as cited in patent US6391843B1, “Chemical linker compositions” (Colgate-Palmolive Co., priority 1996, dated 2002).

Tested on: insect
Settings: hard surface cleaning composition

Substance: Methylneodecanamide [MNDA]
- amount of MNDA necessary to deposit to have one day efficacy: 10 micrograms of MNDA per cm2
